Counter-ions that a name gives are not always drawn.
target: AaDOP2 (Aedes aegypti, UniProt H6D5H2); assay: AaDOP2 antagonist screen of the LOPAC1280 library (HEK-CRELuc-Aadop2 cells, luminescence); format: cell-based; conditions: not given
Sequence (H6D5H2 1-476): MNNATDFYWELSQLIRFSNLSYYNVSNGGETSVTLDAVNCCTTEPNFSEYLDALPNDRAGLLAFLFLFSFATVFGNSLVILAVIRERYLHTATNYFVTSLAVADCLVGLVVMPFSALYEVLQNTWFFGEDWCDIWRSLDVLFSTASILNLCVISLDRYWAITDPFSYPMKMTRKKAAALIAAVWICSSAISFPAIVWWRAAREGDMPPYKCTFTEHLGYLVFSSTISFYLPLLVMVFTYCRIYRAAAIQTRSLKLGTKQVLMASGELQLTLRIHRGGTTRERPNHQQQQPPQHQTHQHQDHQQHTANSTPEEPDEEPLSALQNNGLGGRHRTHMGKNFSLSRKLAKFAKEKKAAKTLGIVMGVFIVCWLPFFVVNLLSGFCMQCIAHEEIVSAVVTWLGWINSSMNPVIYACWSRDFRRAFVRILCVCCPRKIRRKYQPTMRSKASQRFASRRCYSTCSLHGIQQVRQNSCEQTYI

| Compound | Compound effect (percent receptor signaling in presence of test compound, relative lux units relative to the SCH23390 control) |
| --- | --- |
| O=C(O)c1cccnc1Nc1cccc(C(F)(F)F)c1 [Compound 837, Niflumic acid] | 90 |
| O=C(O)/C=C1\CCCc2ccccc2C1O (centres unmarked) [Compound 851, NCS-382] | 97 |
| CC(Cc1ccc(O)cc1)NCC(O)c1cc(O)cc(O)c1 (centres unmarked) [Compound 511, Fenoterol hydrobromide] | 136 |
| CNC(=O)OCC[N+](C)(C)C [Compound 824, Methylcarbamylcholine chloride] | 103 |
| COc1ccc2[nH]cc(CCNC(C)=O)c2c1 [Compound 775, Melatonin] | 104 |
| C[C@@H]1O[C@@H]1P(=O)(O)O [Compound 952, Phosphomycin disodium] | 104 |
| NC/C=C/C(=O)O [Compound 1155, (E)-4-amino-2-butenoic acid] | 126 |
| Cc1c(CC(C)(C)C(=O)O)n(Cc2ccc(Cl)cc2)c2ccc(F)cc12 [Compound 715, L-655,240] | 73 |
| C[C@]12CCC(=O)C=C1CC[C@@H]1[C@@H]2[C@@H](O)C[C@@]2(C)[C@H]1CC[C@]2(O)C(=O)CO [Compound 588, Hydrocortisone] | 78 |
| C[N+](C)(C)CCCCCC[N+](C)(C)C [Compound 575, Hexamethonium bromide] | 91 |
| CC(=O)O[C@]1(C(C)=O)CC[C@H]2[C@@H]3C=C(Cl)C4=CC(=O)[C@@H]5C[C@@H]5[C@]4(C)[C@H]3CC[C@@]21C [Compound 247, Cyproterone acetate] | 115 |
| CN[C@H](CC(=O)O)C(=O)O [Compound 758, N-Methyl-D-aspartic acid] | 97 |
| O=C1Cc2c([nH]c3ccc([N+](=O)[O-])cc23)-c2ccccc2N1 [Compound 54, Alsterpaullone] | 92 |
| COc1ccccc1OCC(O)CN1CCN(CC(=O)Nc2c(C)cccc2C)CC1 (centres unmarked) [Compound 1051, Ranolazine dihydrochloride] | 100 |
| O=C1c2c(O)ccc(O)c2C(=O)c2c(NCCNCCO)ccc(NCCNCCO)c21 [Compound 790, Mitoxantrone] | 18 |
| Cc1ncc(CNC(=O)N(CCCl)N=O)c(N)n1 [Compound 874, Nimustine hydrochloride] | 88 |
| COc1cc(OC)cc(C(CNc2ncnc3c2ncn3[C@@H]2O[C@H](CO)[C@@H](O)[C@H]2O)c2ccccc2C)c1 (some centres unmarked) [Compound 455, DPMA] | 110 |
| CN(C)CCCN1c2ccccc2Sc2ccccc21 [Compound 961, Promazine hydrochloride] | 12 |
| Adenosine 3',5'-cyclic monophosphate [Compound 105] | 100 |
| CC1=C(C)C(=O)C(CCCCC#CCCCC#CCO)=C(C)C1=O [Compound 43, AA-861] | 69 |
| C[N+]1(C)[C@@H]2CC[C@H]1C[C@@H](OC(=O)C(CO)c1ccccc1)C2 (some centres unmarked) [Compound 14, Atropine methyl nitrate] | 112 |

| Compound | Compound effect (percent receptor signaling in presence of test compound, relative lux units relative to the SCH23390 control) |
| --- | --- |
| Nc1ncn([C@@H]2O[C@H](CO)[C@@H](O)[C@H]2O)c(=O)n1 [Compound 36, 5-azacytidine] | 103 |
| CC(C)(C)c1ccc(C(O)CCCN2CCC(C(O)(c3ccccc3)c3ccccc3)CC2)cc1 (centres unmarked) [Compound 1218, Terfenadine] | 41 |
| CC1=NN=C(c2ccc(N)cc2)c2cc3c(cc2C1)OCO3.Cl [Compound 568, GYKI 52466 hydrochloride] | 90 |
| C=CCN1CC[C@]23c4c5ccc(O)c4O[C@H]2C(=O)CC[C@@]3(O)[C@H]1C5 [Compound 867, Naloxone hydrochloride] | 75 |
| O=C1NCC2(CCN(CCc3ccccc3)CC2)O1 [Compound 522, Fenspiride hydrochloride] | 98 |
| C[N+](C)(C)CCOC(N)=O [Compound 257, Carbachol] | 99 |
| O=C(O)/C=C\C(=O)O.O=C(O)/C=C\C(=O)O.c1ccc2nc(N3CCNCC3)ccc2c1 [Compound 1030, Quipazine dimaleate] | 71 |
| CC1Cc2cc3c(cc2C(c2ccc(N)cc2)=NN1)OCO3 (centres unmarked) [Compound 569, GYKI 52895] | 71 |
| O=C(O)C1CCCNC1 (racemic) [Compound 5, (±)-Nipecotic acid] | 99 |
| Nc1ncnc2c1ncn2[C@@H]1O[C@H](COP(=O)(O)CP(=O)(O)OP(=O)([O-])[O-])[C@H](O)C1O.[Li+].[Li+] (stereo partly drawn) [Compound 788, alpha,beta-Methylene adenosine 5'-triphosphate dilithium] | 97 |
| Nc1nc(SCc2ccc([N+](=O)[O-])cc2)c2ncn([C@@H]3O[C@H](CO)[C@@H](O)[C@H]3O)c2n1 [Compound 10, S-(4-Nitrobenzyl)-6-thioguanosine] | 105 |
| CC(C)COCC(CN(Cc1ccccc1)c1ccccc1)N1CCCC1 (centres unmarked) [Compound 175, Bepridil hydrochloride] | 78 |
| OC[C@H]1NC[C@@H](O)[C@@H]1O [Compound 365, 1,4-Dideoxy-1,4-imino-D-arabinitol] | 103 |
| N[C@@H]1C[C@H]1c1ccccc1 [Compound 982, Tranylcypromine hydrochloride] | 73 |
| Nn1nnc2ccccc21 [Compound 46, 1-Aminobenzotriazole] | 141 |
| O=c1ccc2ccc(O)c(O)c2o1 [Compound 393, Daphnetin] | 74 |
| COc1ccc(CN(CCN(C)C)c2ccccn2)cc1 [Compound 953, Pyrilamine maleate] | 59 |
| Br.Cc1cccc(C2CN(C)CCc3c2cc(O)c(O)c3Cl)c1 (centres unmarked) [Compound 1091, SKF 83959 hydrobromide] | 50 |
| CNc1ccc2oc(C[C@H]3O[C@@]4(CC[C@H]3C)O[C@H]([C@H](C)C(=O)c3ccc[nH]3)[C@H](C)C[C@H]4C)nc2c1C(=O)O [Compound 296, Calcimycin] | 102 |
| NC(=O)CN1CC(O)CC1=O (centres unmarked) [Compound 902, Oxiracetam] | 101 |

same assay, conditions: 10 µM compound, 300 nM dopamine, 2 hr; hit = compound effect <20

| Compound effect (percent receptor signaling in presence of test compound, relative lux units relative to the SCH23390 control) [%] | Compound |
| --- | --- |
| 114 | CNC(=O)[C@H]1O[C@@H](n2cnc3c(N)ncnc32)[C@H](O)[C@@H]1O [Compound 121, 5'-N-Methyl carboxamidoadenosine] |
| 121 | N=C(N)NC(CCC(=O)O)C(=O)O (stereo not drawn) [Compound 558, alpha-Guanidinoglutaric acid] |
| 120 | CC(C)=CCC/C(C)=C/CC/C(C)=C/CSc1ccccc1C(=O)O [Compound 532, Farnesylthiosalicylic acid] |
| 97 | C[C@H]1C[C@H]2[C@@H]3CCC4=CC(=O)C=C[C@]4(C)[C@@]3(Cl)[C@@H](O)C[C@]2(C)[C@@]1(O)C(=O)CO [Compound 152, Beclomethasone] |
| 110 | NCC(O)(CS(=O)(=O)O)c1ccc(Cl)cc1 (centres unmarked) [Compound 72, 2-Hydroxysaclofen] |
| 135 | CNc1cc(NS(=O)(=O)c2ccc(N)cc2)nc(NC)n1.Cl.Cl [Compound 1073, Ro 04-6790 dihydrochloride] |
| 114 | CCN1CCCC1CNC(=O)c1cc(S(N)(=O)=O)ccc1OC (racemic) [Compound 1113, (±)-Sulpiride] |

| Compound | Compound effect (percent receptor signaling in presence of test compound, relative lux units relative to the SCH23390 control) [%] |
| --- | --- |
| Br.CN1CCc2cc(O)cc3c2[C@H]1Cc1ccc(O)c(O)c1-3 [Compound 437, R(-)-2,10,11-Trihydroxyaporphine hybrobromide] | 71 |
| CC(C)(C)NCC(O)c1cc(O)cc(O)c1.CC(C)(C)NCC(O)c1cc(O)cc(O)c1.O=S(=O)(O)O (centres unmarked) [Compound 1161, Terbutaline hemisulfate] | 119 |
| CC(C)NCC(O)c1cc(O)cc(O)c1.CC(C)NCC(O)c1cc(O)cc(O)c1.O=S(=O)(O)O (centres unmarked) [Compound 746, Metaproterenol hemisulfate] | 111 |

same assay, conditions: read-out: % of the SCH23390 effect (percent inhibition of receptor response relative to the SCH23390 control)

| Compound | inhibition at 10 µM [%] |
| --- | --- |
| O=C1c2c(O)ccc(O)c2C(=O)c2c(NCCNCCO)ccc(NCCNCCO)c21 [Compound 790, Mitoxantrone] | 83 |
| CN(C)CCCN1c2ccccc2Sc2ccccc21 [Compound 961, Promazine hydrochloride] | 88 |

Source: article PMC3265452 (PLoS Neglected Tropical Diseases, 2012)
